According to patent US7879858B2, “Substituted tetrahydropyrrolopyrazine compounds and the use thereof in pharmaceutical compositions” (Gruenenthal GmbH, priority 2006, dated 2011):

Experiments:
Serotonin reuptake = target: T1, Serotonin reuptake (Rattus norvegicus, UniProt P31652); assay: Inhibition of 5HT (serotonin) uptake in rat brain synaptosomes; type: biochemical; conditions: synaptosomes from rat brain; for inhibition at 10 µM: 10 μmol
T1 construct: synaptosomes are freshly isolated from areas of the rat brain; from tissue; host or cells: rat brain synaptosomes (P2 fraction)
T1 sequence (P31652 whole entry): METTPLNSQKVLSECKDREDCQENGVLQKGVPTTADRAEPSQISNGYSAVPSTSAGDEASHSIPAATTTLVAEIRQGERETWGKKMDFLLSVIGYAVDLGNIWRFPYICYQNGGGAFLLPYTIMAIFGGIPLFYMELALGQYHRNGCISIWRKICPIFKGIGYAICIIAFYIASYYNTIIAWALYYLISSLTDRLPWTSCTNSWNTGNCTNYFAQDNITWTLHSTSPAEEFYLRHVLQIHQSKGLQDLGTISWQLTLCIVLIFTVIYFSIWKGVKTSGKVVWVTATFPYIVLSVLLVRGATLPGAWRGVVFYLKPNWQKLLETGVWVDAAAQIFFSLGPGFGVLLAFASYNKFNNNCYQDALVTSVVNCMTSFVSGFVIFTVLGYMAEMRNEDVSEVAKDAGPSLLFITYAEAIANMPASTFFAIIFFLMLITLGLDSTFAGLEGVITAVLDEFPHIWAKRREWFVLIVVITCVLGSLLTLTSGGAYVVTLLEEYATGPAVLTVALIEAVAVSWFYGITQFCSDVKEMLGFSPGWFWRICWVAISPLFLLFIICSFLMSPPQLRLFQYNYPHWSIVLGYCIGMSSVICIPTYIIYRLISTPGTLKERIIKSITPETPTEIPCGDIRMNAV
Procedure: (§1) Biological Data Inhibition of NA and 5HT Uptake
(§2) In order to be able to carry out these in vitro studies, synaptosomes are freshly isolated from areas of the rat brain. In each case a so-called “P2” fraction prepared in accordance with the instructions of Gray and Whittaker (E. G. Gray and V. P. Whittaker (1962) J. Anat. 76, 79-88) is prepared. For the NA uptake, these vesicular particles are isolated from the hypothalamus of male rat brains. A detailed description of the method can be found in the literature (M. Ch. Frink, H.-H. Hennies, W. Englberger, M. Haurand and B. Wilffert (1996) Arzneim.-Forsch./Drug Res. 46 (III), 11, 1029-1036).

NA reuptake = assay: Inhibition of NA (noradrenaline) uptake in rat hypothalamus synaptosomes; type: biochemical; conditions: synaptosomes from hypothalamus of male rat brains
Procedure: as §1, §2

Row | Compound | inhibition at 10 µM (Serotonin reuptake) [%] | Serotonin reuptake % inhibition [10 μmol] (Serotonin reuptake) [%] | NA reuptake % inhibition [10 μmol] (NA reuptake) [%]
1 | O=C(c1cccc(F)c1)N1CCn2cccc2C1c1cccs1 (centres unmarked) [Example 58, (3-fluoro-phenyl)-(1-thiophen-2-yl-3,4-dihydro-1H-pyrrolo[1,2-a]pyrazin-2-yl)-methanone] | 60 |  | 54
2 | O=C(C1CCC1)N1CCn2cccc2C1c1ccc(Cl)c(Cl)c1 (centres unmarked) [Example 66, cyclobutyl(1-(3,4-dichlorophenyl)-3,4-dihydropyrrolo[1,2-a]pyrazin-2(1H)-yl)methanone] | 43 |  | 32
3 | Cc1cccc(C2c3cccn3CCN2C(=O)CC(C)C)c1 (centres unmarked) [Example 15, 3-methyl-1-(1-m-tolyl-3,4-dihydropyrrolo[1,2-a]pyrazin-2(1H)-yl)butan-1-one] | 28 |  | 19
4 | Cc1cccc(C2c3cccn3CCN2C(=O)c2ccc3c(c2)OCO3)c1 (centres unmarked) [Example 18, benzo[1,3]dioxol-5-yl-(1-m-tolyl-3,4-dihydro-1H-pyrrolo[1,2-a]pyrazin-2-yl)-methanone] | 55 |  | 40
5 | O=C(c1ccc(F)cc1)N1CCn2cccc2C1c1ccc(F)cc1F (centres unmarked) [Example 19, (1-(2,4-difluorophenyl)-3,4-dihydropyrrolo[1,2-a]pyrazin-2(1H)-yl)(4-fluorophenyl)methanone] | 35 |  | 28
6 | O=C(c1ccc2c(c1)OCO2)N1CCn2cccc2C1c1cccs1 (centres unmarked) [Example 56, benzo[1,3]dioxol-5-yl-(1-thiophen-2-yl-3,4-dihydro-1H-pyrrolo[1,2-a]pyrazin-2-yl)-methanone] | 56 |  | 35
7 | O=C(c1ccc2c(c1)OCO2)N1CCn2cccc2C1c1cccc(Cl)c1 (centres unmarked) [Example 40, benzo[d][1,3]dioxol-5-yl(1-(3-chlorophenyl)-3,4-dihydropyrrolo[1,2-a]pyrazin-2(1H)-yl)methanone] | 38 |  | 41
8 | O=C(/C=C/c1ccccc1)N1CCn2cccc2C1c1cccs1 (centres unmarked) [Example 72, 3-phenyl-1-(1-(thiophen-2-yl)-3,4-dihydropyrrolo[1,2-a]pyrazin-2(1H)-yl)prop-2-en-1-one] | 28 |  | 23
9 | COc1ccccc1C1c2cccn2CCN1C(=O)C1CCCC1 (centres unmarked) [Example 2, cyclopentyl-[1-(2-methoxy-phenyl)-3,4-dihydro-1H-pyrrolo[1,2-a]pyrazin-2-yl]-methanone] | 79 |  | 36
10 | COc1ccccc1C1c2cccn2CCN1C(=O)c1ccc2c(c1)OCO2 (centres unmarked) [Example 3, benzo[1,3]dioxol-5-yl-[1-(2-methoxy-phenyl)-3,4-dihydro-1H-pyrrolo[1,2-a]pyrazin-2-yl]-methanone] | 86 |  | 29
11 | O=C(c1ccco1)N1CCn2cccc2C1c1ccc(Cl)c(Cl)c1 (centres unmarked) [Example 68, [1-(3,4-dichloro-phenyl)-3,4-dihydro-1H-pyrrolo[1,2-a]pyrazin-2-yl]-furan-2-yl-methanone] | 57 |  | 48
12 | O=C(c1ccco1)N1CCn2cccc2C1c1ccccc1F (centres unmarked) [Example 5, (1-(2-fluorophenyl)-3,4-dihydropyrrolo[1,2-a]pyrazin-2(1H)-yl)(furan-2-yl)methanone] | 11 |  | 34
13 | O=C(c1ccc(F)cc1)N1CCn2cccc2C1c1cccs1 (centres unmarked) [Example 60, (4-fluorophenyl)(1-(thiophen-2-yl)-3,4-dihydropyrrolo[1,2-a]pyrazin-2(1H)-yl)methanone] | 37 |  | 11
14 | CN(C)c1ccc(C2c3cccn3CCN2C(=O)c2cccs2)cc1 (centres unmarked) [Example 53, (1-(4-(dimethylamino)phenyl)-3,4-dihydropyrrolo[1,2-a]pyrazin-2(1H)-yl)(thiophen-2-yl)methanone] | 31 |  | 26
15 | CC(C)CC(=O)N1CCn2cccc2C1c1ccc(Cl)c(Cl)c1 (centres unmarked) [Example 64, 1-(1-(3,4-dichlorophenyl)-3,4-dihydropyrrolo[1,2-a]pyrazin-2(1H)-yl)-3-methylbutan-1-one] | 48 |  | 30
16 | O=C(c1cccs1)N1CCn2cccc2C1c1ccc2c(c1)OCCO2 (centres unmarked) [Example 36, [1-(2,3-dihydro-benzo[1,4]dioxin-6-yl)-3,4-dihydro-1H-pyrrolo[1,2-a]pyrazin-2-yl]-thiophen-2-yl-methanone] | 59 |  | 41
17 | O=C(c1ccco1)N1CCn2cccc2C1c1ccc2c(c1)OCCO2 (centres unmarked) [Example 37, [1-(2,3-dihydro-benzo[1,4]dioxin-6-yl)-3,4-dihydro-1H-pyrrolo[1,2-a]pyrazin-2-yl]-furan-2-yl-methanone] | 55 |  | 32
18 | COc1cccc(C2c3cccn3CCN2C(=O)c2ccco2)c1 (centres unmarked) [Example 30, furan-2-yl(1-(3-methoxyphenyl)-3,4-dihydropyrrolo[1,2-a]pyrazin-2(1H)-yl)methanone] | 51 |  | 16
19 | O=C(C1CCC1)N1CCn2cccc2C1c1ccc(F)cc1 (centres unmarked) [Example 28, cyclobutyl(1-(4-fluorophenyl)-3,4-dihydropyrrolo[1,2-a]pyrazin-2(1H)-yl)methanone] | 29 |  | 21
20 | Cc1cccc(C2c3cccn3CCN2C(=O)c2cccc(F)c2)c1 (centres unmarked) [Example 16, (3-fluoro-phenyl)-(1-m-tolyl-3,4-dihydro-1H-pyrrolo[1,2-a]pyrazin-2-yl)-methanone] | 54 |  | 49
21 | O=C(CCC1CCCCC1)N1CCn2cccc2C1c1cccs1 (centres unmarked) [Example 86, 3-cyclohexyl-1-(1-(thiophen-2-yl)-3,4-dihydropyrrolo[1,2-a]pyrazin-2(1H)-yl)propan-1-one] | 53 |  | 19
22 | O=C(CCc1ccccc1)N1CCn2cccc2C1c1cccs1 (centres unmarked) [Example 76, 3-phenyl-1-(1-(thiophen-2-yl)-3,4-dihydropyrrolo[1,2-a]pyrazin-2(1H)-yl)propan-1-one] | 36 |  | 46
23 | O=C(CCCCc1ccccc1)N1CCn2cccc2C1c1cccs1 (centres unmarked) [Example 77, 5-phenyl-1-(1-(thiophen-2-yl)-3,4-dihydropyrrolo[1,2-a]pyrazin-2(1H)-yl)pentan-1-one] | 25 |  | 10

The next lines start with results.

Row | inhibition at 10 µM (Serotonin reuptake) [%] | Serotonin reuptake % inhibition [10 μmol] (Serotonin reuptake) [%] | Compound | NA reuptake % inhibition [10 μmol] (NA reuptake) [%]
24 | 32 |  | Cc1ccccc1C(=O)N1CCn2cccc2C1c1ccccc1 (centres unmarked) [Example 26, (1-phenyl-3,4-dihydropyrrolo[1,2-a]pyrazin-2(1H)-yl)(o-tolyl)methanone] | 23
25 | 44 |  | Cc1ccccc1C(=O)N1CCn2cccc2C1c1cccs1 (centres unmarked) [Example 57, (1-(thiophen-2-yl)-3,4-dihydropyrrolo[1,2-a]pyrazin-2(1H)-yl)(o-tolyl)methanone] | 15
26 | 42 |  | O=C(c1cccc(F)c1)N1CCn2cccc2C1c1ccccc1 (centres unmarked) [Example 23, (3-fluorophenyl)(1-phenyl-3,4-dihydropyrrolo[1,2-a]pyrazin-2(1H)-yl)methanone] | 41
27 | 34 |  | COc1ccccc1C(=O)N1CCn2cccc2C1c1ccc(Cl)cc1 (centres unmarked) [Example 29, (1-(4-chlorophenyl)-3,4-dihydropyrrolo[1,2-a]pyrazin-2(1H)-yl)(2-methoxyphenyl)methanone] | 21
28 | 38 |  | Cc1ccsc1C(=O)N1CCn2cccc2C1c1ccccc1 (centres unmarked) [Example 70, (3-methylthiophen-2-yl)(1-phenyl-3,4-dihydropyrrolo[1,2-a]pyrazin-2(1H)-yl)methanone] | 11
29 | 58 |  | O=C(c1cccc(F)c1)N1CCn2cccc2C1c1cccc(Cl)c1 (centres unmarked) [Example 43, [1-(3-chloro-phenyl)-3,4-dihydro-1H-pyrrolo[1,2-a]pyrazin-2-yl]-(3-fluoro-phenyl)-methanone] | 66
30 |  | 46 | COc1ccccc1C(=O)N1CCn2cccc2C1c1cccc(Cl)c1 (centres unmarked) [Example 39, (1-(3-chlorophenyl)-3,4-dihydropyrrolo[1,2-a]pyrazin-2-(1H)-yl)(2-methoxyphenyl)methanone] | 43
31 | 52 |  | Cc1ccccc1C(=O)N1CCn2cccc2C1c1ccc2c(c1)OCCO2 (centres unmarked) [Example 34, [1-(2,3-dihydro-benzo[1,4]dioxin-6-yl)-3,4-dihydro-1H-pyrrolo[1,2-a]pyrazin-2-yl]-o-tolyl-methanone] | 22
32 | 43 |  | CN(C)c1ccc(C2c3cccn3CCN2C(=O)c2ccccc2F)cc1 (centres unmarked) [Example 51, (1-(4-(dimethylamino)phenyl)-3,4-dihydropyrrolo[1,2-a]pyrazin-2(1H)-yl)(2-fluorophenyl)methanone] | 19
33 | 52 |  | O=C(c1ccc(F)cc1)N1CCn2cccc2C1c1cccc(Cl)c1 (centres unmarked) [Example 46, [1-(3-chloro-phenyl)-3,4-dihydro-1H-pyrrolo[1,2-a]pyrazin-2-yl]-(4-fluoro-phenyl)-methanone] | 50
34 | 47 |  | CN(C)c1ccc(C2c3cccn3CCN2C(=O)c2ccc(F)cc2)cc1 (centres unmarked) [Example 54, (1-(4-(dimethylamino)phenyl)-3,4-dihydropyrrolo[1,2-a]pyrazin-2(1H)-yl)(4-fluorophenyl)methanone] | 40
